# Test results from patent US20100172889A1, “DEGRADABLE BIOMOLECULE COMPOSITIONS” (priority 2008, published 2010).
# Tested on: cellulase C
# Settings: PHMB present in lyophilized cellulose film with cellulase C
# Method: Two test materials (A and B) were prepared. Material A is a lyophilized cellulose film with cellulase C, and material B is a lyophilized cellulose film with cellulase C plus antiseptic Polyhexamethylene Biguanide (PHMB). Lyophilized cellulose samples A and B were incubated under conditions 1 and 2 for one month. Using media of tryptic soy agar, the samples were put in the solution to perform enzymatic degradation. On the 2nd, 8th, and 14th day, the degrading solution was taken out and plated on the agar media. The agar media plates were incubated for one month according to condition 3.
substance,measurement,value
Polyhexamethylene Biguanide [PHMB],reduction in cellulase enzyme activity,no observable reduction in cellulase enzyme activity
